In ChEMBL document CHEMBL3108668, “Antitumor activity of jujuboside B and the underlying mechanism via induction of apoptosis and autophagy” (J Nat Prod, 2014):

Key:
HCT-116 [1] = test: Induction of apoptosis in human HCT116 cells assessed as necrotic cells at 25 uM after 24 hrs by annexin V-FITC/propidium iodide staining-based flow cytometry (reference value: 0.68%); format: functional
HCT-116 [2] = test: Induction of apoptosis in human HCT116 cells assessed as necrotic cells at 50 uM after 24 hrs by annexin V-FITC/propidium iodide staining-based flow cytometry (reference value: 0.68%); format: functional

Q: With `CC(C)=C[C@H]1C[C@](C)(O)[C@@H]2[C@H]3CC[C@@H]4[C@@]5(C)CC[C@H](O[C@@H]6OC[C@H](O)[C@H](O[C@@H]7O[C@H](CO)[C@@H](O)[C@H](O)[C@H]7O[C@@H]7OC[C@@H](O)[C@H](O)[C@H]7O)[C@H]6O[C@@H]6O[C@@H](C)[C@H](O)[C@@H](O)[C@H]6O)C(C)(C)[C@@H]5CC[C@@]4(C)[C@@]34CO[C@@]2(C4)O1` as the molecule, how does the Activity (HCT-116 [1]) read?
A: 0.67%

Q: And the Activity (HCT-116 [2])?
A: 0.5%
